Measurements: US11708391B2, “Rapaglutins, novel inhibitors of GLUT and use thereof” (The Johns Hopkins University, priority 2016, dated 2023)
Read-outs that look alike come from different tables or passages of the source.

Tests used:
HeLa = assay: alamar blue assay, HeLa; type: cell-based
Text: (§1) Dose-dependent inhibition of cell proliferation by A18 and E11 was next evaluated in several other human cancer cell lines, including breast cancer HCC1954, pancreatic cancer PANC10.05, leukemia Jurkat T and colon cancer RKO (FIGS. 1b and 1c). […] (FIGS. 1 and 9; Table 3)

colon cancer RKO = assay: alamar blue assay, RKO; type: cell-based, human
Text: as §1

HEK293T = assay: alamar blue assay, HEK293T; type: cell-based
Text: as §1
(§2) Up to now, at least 14 different isoforms of GLUTs have been identified in human cells. It was then asked whether A18 and E11 are specific inhibitors of GLUT1. To answer this question, colon cancer DLD-1 wild type and GLUT1 gene knock out cell lines were chosen as a cell model (FIG. 4a). […] GLUTs that are most relevant to cancer are Glut1 and Glut3. To obtain additional evidence, Glut1 and Glut3 in HEK 293T cells were overexpressed and an alamar blue cell viability assay was performed again. […] (see FIGS. 4, 19, 20, 26; Table 4).

HEK 293T FLAG-Glut1 = assay: alamar blue assay, HEK 293T Glut1 overexpression cells; type: cell-based; details: for IC50: HEK 293T FLAG-Glut1
Text: (§3) FIGS. 20A-20C. E11 is a specific inhibitor of Glut1. (a) Glut1 and Glut3 protein levels of wild type, Glut1 and Glut3 overexpression cells analyzed by western blotting. (b)(c) Inhibition of cell proliferation in HEK293T, Glut1 and Glut3 overexpression cells by A18 and E11.
as §2

HEK 293T FLAG-Glut3 = assay: alamar blue assay, HEK 293T Glut3 overexpression cells; type: cell-based
Text: as §3, §2

NF-κB = NF-κB pathway reporter in Jurkat T cells; type: cell-based
Text: (§4) FIGS. 28A-28D. (a) A18 and E11 inhibit NFAT and A18, but not E11, stimulates SRE reporter gene signal. (b) E11 inhibits NFAT, NF-κB and IL2, but not MEF-2 or AP-1 pathways, in Jurkat T cells. (c) Glucose inhibitor stimulates SRE reporter gene signal.

HEK 293T cells [1] = assay: Western blot for DNA damage and apoptosis markers in HEK 293T; details: 72 h (DNA damage), 24 h (apoptosis)
SRE = SRE reporter gene assay; type: cell-based
Text: as §4

HEK 293T cells [2] = test system: HEK 293T cells

| Molecule | IC50 (HeLa) [µM] | IC50 (colon cancer RKO) [µM] | IC50 (HEK293T; HEK293T, Table 3) [µM] | IC50 (HEK293T; HEK 293T, Table 4) [µM] | inhibition in alamar blue cell viability assay (HEK 293T FLAG-Glut1; GLUT1 overexpression HEK 293T cells) | IC50 (HEK 293T FLAG-Glut1) [µM] | inhibition in alamar blue cell viability assay (HEK 293T FLAG-Glut3; GLUT3 overexpression HEK 293T cells) | IC50 alamar blue assay (HEK 293T FLAG-Glut3; HEK 293T FLAG-Glut3) | NF-κB pathway (NF-κB) | DNA damage or apoptosis (phosphor-p53, active caspase 3, 7 and 9) (HEK 293T cells [1]) | IC50 (HeLa; Homo sapiens) [µM] | IC50 (colon cancer RKO; Homo sapiens) [µM] | IC50 (HEK293T; Homo sapiens, HEK-293T, HEK293T, Table 3) [µM] | IC50 (HEK293T; Homo sapiens, HEK-293T, HEK 293T, Table 4) [µM] | IC50 (HEK 293T FLAG-Glut1; Homo sapiens) [µM] | IC50 (HEK 293T FLAG-Glut3; Homo sapiens, HEK 293T FLAG-Glut3) [µM] | SRE reporter gene signal (SRE) | DNA damage or apoptosis (phosphor-p53, active caspase 3, 7 and 9) (HEK 293T cells [2]) |
| --- | --- | --- | --- | --- | --- | --- | --- | --- | --- | --- | --- | --- | --- | --- | --- | --- | --- | --- |
| Gly-^MSerBu-Nal-^MAla [E11] | 0.383 | 0.714 | 0.154 | 0.0848 | kept partial inhibitory activity | 0.658 | didn't show any inhibition | No activity | inhibits | do not induce DNA damage or apoptosis |  |  |  |  |  |  |  |  |
| CC[C@@H](C)[C@H]1C(=O)NCC(=O)N(C)CC/C=C/C(=O)OCC(C)(C)C(=O)C(=O)N2CCCC[C@H]2C(=O)O[C@H](CCc2ccc(OC)c(OC)c2)c2cccc(c2)NC(=O)CCC(=O)N(C)[C@@H](CC(C)C)C(=O)N[C@H](Cc2ccccc2)C(=O)N1C [A18] |  |  |  |  |  |  |  |  |  |  | 0.281 | 0.115 | 0.11 | 0.069 | 0.573 | 2.35 | stimulates | do not induce DNA damage or apoptosis |
